According to PMC5797802, “The A2B Adenosine Receptor Modulates the Epithelial– Mesenchymal Transition through the Balance of cAMP/PKA and MAPK/ERK Pathway Activation in Human Epithelial Lung Cells” (Frontiers in Pharmacology, 2018):

Tests used:
[1] = molecular target: T1, A2B adenosine receptor (A2BAR) (Homo sapiens, UniProt P29275); assay: agonist-induced cAMP production (AlphaLISA) in A549 cells with endogenous receptor; effect reversed by MRS […]; format: cell-based
T1 construct: gene ADORA2B
T1 sequence (P29275 1-332): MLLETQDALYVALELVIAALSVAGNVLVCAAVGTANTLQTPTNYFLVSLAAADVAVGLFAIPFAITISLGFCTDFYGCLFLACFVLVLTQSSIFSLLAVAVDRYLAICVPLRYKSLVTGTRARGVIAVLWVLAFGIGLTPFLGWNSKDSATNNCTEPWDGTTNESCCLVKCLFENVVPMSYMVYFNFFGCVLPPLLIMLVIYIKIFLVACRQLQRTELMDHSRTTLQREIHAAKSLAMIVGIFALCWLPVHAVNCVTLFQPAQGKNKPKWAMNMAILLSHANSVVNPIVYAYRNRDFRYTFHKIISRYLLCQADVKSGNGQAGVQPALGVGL

[2] = molecular target: T1, A2B adenosine receptor (A2BAR); assay: reversal at […] of BAY […]-6583-induced cAMP and ERK1/[…] phosphorylation in A549 cells; format: cell-based

Row | Compound | EC50 [1] [nM] | reversal at 1 μM of BAY 60-6583-induced cAMP and ERK1/2 phosphorylation in A549 [2]
1 | N#Cc1c(N)nc(SCC(N)=O)c(C#N)c1-c1ccc(OCC2CC2)cc1 [BAY 60-6583, 2-[6-amino-3,5-dicyano-4-[4-(cyclopropylmethoxy)phenyl]pyridin-2-ylsulfanyl] acetamide] | 17.2 ± 2.5 | –
2 | CCCn1c(=O)c2[nH]c(-c3ccc(OCC(=O)Nc4ccc(C(C)=O)cc4)cc3)nc2n(CCC)c1=O [MRS1706, N-(4-acetylphenyl)-2-[4-(2,3,6,7-tetrahydro-2,6-dioxo-1,3-dipropyl-1H-purin-8-yl)phenoxy]-acetamide] | – | The effects evoked by A2BAR stimulation were almost completely reversed by the A2BAR inverse agonist MRS1706
